Data: ChEMBL document CHEMBL5465560, “Selectivity Literature for EUbOPEN Chemogenomic Library” (2024)

Legend:
[1] = molecular target: T1, Mitogen-activated protein kinase kinase kinase 19 (Homo sapiens) (UniProt Q56UN5); test: Selectivity interaction (KinomeScan (DiscoverX)) EUB0000229b MAP3K19; conditions: at 10 µM
T1 sequence (whole entry): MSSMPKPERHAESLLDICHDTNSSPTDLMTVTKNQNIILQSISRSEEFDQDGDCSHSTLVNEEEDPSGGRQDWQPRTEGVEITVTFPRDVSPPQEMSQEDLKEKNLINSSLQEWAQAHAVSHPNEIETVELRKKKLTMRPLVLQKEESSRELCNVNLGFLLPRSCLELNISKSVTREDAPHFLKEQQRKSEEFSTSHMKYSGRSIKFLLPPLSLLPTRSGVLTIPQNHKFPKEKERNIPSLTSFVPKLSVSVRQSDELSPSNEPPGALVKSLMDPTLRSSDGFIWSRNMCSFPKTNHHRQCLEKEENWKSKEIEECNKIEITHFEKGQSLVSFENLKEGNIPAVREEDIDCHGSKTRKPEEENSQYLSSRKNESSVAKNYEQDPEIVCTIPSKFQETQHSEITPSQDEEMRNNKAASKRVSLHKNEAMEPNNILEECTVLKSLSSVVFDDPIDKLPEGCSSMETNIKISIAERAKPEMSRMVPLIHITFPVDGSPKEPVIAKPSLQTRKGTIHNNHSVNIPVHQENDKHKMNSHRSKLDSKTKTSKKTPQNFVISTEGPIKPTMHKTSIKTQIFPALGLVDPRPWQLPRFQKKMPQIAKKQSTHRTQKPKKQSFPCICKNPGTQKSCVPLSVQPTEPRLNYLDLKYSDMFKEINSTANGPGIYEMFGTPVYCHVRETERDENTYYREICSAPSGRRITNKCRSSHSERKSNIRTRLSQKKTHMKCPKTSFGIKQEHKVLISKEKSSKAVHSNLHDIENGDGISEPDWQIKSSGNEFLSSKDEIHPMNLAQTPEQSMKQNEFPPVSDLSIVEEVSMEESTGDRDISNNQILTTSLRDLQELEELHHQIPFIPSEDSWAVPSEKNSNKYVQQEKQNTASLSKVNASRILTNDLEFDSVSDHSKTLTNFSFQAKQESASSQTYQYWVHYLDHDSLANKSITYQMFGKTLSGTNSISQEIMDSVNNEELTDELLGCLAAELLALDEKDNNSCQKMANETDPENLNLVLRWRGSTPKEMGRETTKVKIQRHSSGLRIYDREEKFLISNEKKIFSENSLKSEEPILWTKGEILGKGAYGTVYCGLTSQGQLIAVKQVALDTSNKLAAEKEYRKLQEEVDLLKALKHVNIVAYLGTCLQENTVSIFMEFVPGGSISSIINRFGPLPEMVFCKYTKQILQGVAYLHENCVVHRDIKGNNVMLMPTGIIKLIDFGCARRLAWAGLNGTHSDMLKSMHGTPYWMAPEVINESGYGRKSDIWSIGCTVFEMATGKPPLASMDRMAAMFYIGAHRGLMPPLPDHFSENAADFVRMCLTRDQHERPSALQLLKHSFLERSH

[2] = molecular target: Rho-associated protein kinase 1 (Homo sapiens) (UniProt Q13464); test: Selectivity interaction (KinomeScan (DiscoverX)) EUB0000229b ROCK1; conditions: at 10 µM
Rho-associated protein kinase 1 (Homo sapiens), sequence (Q13464 2-1354 limits assumed): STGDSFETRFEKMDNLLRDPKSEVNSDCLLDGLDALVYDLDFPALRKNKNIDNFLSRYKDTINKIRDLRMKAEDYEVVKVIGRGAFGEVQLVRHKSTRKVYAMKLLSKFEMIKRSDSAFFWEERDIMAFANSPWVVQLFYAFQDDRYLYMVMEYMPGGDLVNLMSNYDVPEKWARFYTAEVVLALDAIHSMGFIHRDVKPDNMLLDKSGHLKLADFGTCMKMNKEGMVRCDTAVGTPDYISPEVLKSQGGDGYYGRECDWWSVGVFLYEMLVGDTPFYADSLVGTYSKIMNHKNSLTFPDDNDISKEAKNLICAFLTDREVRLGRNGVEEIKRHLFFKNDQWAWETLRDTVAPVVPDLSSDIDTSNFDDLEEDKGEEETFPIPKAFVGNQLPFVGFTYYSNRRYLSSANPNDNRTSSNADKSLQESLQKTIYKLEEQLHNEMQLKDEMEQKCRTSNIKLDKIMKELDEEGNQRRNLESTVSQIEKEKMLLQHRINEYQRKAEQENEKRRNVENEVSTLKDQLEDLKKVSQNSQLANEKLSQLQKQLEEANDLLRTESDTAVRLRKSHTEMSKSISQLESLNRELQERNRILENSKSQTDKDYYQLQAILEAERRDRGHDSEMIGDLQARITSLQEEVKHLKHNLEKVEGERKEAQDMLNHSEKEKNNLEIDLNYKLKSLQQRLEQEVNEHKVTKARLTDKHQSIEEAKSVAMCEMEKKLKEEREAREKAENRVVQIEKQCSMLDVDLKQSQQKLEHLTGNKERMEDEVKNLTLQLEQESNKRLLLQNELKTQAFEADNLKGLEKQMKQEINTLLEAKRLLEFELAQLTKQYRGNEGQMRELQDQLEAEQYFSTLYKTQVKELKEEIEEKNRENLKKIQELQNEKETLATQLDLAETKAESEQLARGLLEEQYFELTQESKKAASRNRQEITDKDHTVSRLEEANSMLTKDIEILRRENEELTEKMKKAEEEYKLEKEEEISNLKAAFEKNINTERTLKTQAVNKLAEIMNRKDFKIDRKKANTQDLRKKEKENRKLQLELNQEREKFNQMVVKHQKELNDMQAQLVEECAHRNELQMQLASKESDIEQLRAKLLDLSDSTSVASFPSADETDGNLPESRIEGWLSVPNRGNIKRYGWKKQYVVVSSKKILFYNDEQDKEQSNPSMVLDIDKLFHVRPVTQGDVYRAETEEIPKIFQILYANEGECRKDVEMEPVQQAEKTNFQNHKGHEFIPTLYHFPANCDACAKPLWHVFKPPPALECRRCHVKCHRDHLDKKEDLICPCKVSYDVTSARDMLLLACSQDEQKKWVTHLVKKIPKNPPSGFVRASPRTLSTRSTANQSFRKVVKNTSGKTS

[3] = molecular target: Platelet-derived growth factor receptor beta (Homo sapiens, UniProt P09619); test: Selectivity interaction (Kinase panel (enzymatic assay)) EUB0000595a PDGFRB
[4] = molecular target: Dual specificity protein kinase CLK3 (Homo sapiens, UniProt P49761); test: Selectivity interaction (KinomeScan (DiscoverX)) EUB0000045b CLK3
Dual specificity protein kinase CLK3, sequence (P49761 whole entry, looked up): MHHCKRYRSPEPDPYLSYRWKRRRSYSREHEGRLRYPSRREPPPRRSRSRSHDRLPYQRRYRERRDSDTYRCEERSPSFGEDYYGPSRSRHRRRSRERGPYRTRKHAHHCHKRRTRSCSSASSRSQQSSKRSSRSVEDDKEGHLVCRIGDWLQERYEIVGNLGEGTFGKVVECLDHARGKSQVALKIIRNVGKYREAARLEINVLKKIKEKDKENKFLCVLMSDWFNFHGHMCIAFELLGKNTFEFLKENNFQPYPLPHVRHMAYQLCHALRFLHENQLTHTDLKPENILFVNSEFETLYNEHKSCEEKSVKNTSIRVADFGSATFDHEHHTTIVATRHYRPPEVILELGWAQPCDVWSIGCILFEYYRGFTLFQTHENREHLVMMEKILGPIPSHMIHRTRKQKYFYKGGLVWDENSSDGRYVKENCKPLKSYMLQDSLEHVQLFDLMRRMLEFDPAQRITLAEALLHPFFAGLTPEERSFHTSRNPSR

[5] = molecular target: Interferon-induced, double-stranded RNA-activated protein kinase (Homo sapiens) (UniProt P19525); test: Selectivity interaction (KinomeScan (DiscoverX)) EUB0001079a EIF2AK2; conditions: at 1 µM
Interferon-induced, double-stranded RNA-activated protein kinase (Homo sapiens), sequence (P19525 whole entry): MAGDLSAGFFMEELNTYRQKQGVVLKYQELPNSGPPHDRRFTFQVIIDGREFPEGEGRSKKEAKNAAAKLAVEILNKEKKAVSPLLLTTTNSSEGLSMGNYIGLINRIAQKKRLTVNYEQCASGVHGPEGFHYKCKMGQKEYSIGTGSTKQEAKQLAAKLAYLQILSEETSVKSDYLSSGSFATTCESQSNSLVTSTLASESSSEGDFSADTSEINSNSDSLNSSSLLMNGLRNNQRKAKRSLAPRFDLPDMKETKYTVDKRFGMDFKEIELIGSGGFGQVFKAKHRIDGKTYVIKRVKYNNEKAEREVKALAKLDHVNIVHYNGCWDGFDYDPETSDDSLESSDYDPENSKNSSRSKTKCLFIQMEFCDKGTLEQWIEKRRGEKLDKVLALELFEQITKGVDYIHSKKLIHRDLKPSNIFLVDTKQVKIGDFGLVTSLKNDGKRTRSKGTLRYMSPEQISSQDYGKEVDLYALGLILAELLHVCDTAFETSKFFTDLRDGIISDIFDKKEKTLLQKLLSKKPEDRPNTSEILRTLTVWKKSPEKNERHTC

[6] = molecular target: Casein kinase II subunit alpha (Homo sapiens, UniProt P68400); test: Selectivity interaction (KinomeScan (DiscoverX)) EUB0001079a CSNK2A1; conditions: at 1 µM
Casein kinase II subunit alpha, sequence (P68400 whole entry, looked up): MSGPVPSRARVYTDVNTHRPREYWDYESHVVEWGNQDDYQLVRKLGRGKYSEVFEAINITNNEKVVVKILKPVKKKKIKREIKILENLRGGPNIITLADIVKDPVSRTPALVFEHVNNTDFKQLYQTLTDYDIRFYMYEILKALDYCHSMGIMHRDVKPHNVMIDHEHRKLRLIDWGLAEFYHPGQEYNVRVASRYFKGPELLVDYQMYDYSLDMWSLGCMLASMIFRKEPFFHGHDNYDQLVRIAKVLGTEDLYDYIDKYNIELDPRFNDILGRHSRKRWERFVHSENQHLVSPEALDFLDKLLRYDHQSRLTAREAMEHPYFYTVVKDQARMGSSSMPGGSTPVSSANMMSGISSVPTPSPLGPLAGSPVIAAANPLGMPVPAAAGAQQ

[7] = molecular target: Calcium/calmodulin-dependent protein kinase type II subunit beta (Homo sapiens) (UniProt Q13554); test: Selectivity interaction (KinomeScan (DiscoverX)) EUB0001049a CAMK2B; conditions: at 1 µM
Calcium/calmodulin-dependent protein kinase type II subunit beta (Homo sapiens), sequence (Q13554 whole entry): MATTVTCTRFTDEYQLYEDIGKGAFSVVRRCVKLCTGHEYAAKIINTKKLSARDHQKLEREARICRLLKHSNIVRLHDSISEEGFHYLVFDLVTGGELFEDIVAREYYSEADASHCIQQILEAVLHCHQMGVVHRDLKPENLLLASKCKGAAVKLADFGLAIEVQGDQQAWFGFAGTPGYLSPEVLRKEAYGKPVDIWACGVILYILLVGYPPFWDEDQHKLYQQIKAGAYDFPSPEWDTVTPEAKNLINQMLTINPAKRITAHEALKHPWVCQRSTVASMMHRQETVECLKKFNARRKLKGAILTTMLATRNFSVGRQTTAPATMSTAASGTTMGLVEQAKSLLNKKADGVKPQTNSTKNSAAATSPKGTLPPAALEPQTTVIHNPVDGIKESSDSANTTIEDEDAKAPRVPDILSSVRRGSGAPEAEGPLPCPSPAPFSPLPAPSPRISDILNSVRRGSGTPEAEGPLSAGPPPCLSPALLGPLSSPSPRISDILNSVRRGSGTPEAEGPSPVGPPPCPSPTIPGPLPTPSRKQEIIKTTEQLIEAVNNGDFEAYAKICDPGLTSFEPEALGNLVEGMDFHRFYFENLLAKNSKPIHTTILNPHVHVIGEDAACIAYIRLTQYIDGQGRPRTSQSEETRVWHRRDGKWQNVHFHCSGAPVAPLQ

[8] = molecular target: Serine/threonine-protein kinase 16 (Homo sapiens, UniProt O75716); test: Selectivity interaction (Enzymatic assay) EUB0001550a STK16
Serine/threonine-protein kinase 16, sequence (O75716 whole entry): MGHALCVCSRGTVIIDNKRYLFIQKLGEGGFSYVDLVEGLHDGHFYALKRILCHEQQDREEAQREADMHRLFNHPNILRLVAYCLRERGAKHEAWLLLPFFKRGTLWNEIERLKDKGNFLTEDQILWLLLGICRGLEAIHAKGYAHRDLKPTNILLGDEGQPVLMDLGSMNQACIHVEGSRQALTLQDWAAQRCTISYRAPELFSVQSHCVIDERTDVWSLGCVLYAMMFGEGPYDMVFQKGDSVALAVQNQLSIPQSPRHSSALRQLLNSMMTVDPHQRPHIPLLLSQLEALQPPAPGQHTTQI

[9] = molecular target: Sodium-dependent serotonin transporter (Homo sapiens, UniProt P31645); test: Selectivity interaction (Panel of kinases, GPCRs, ion channels and transporters (enzymatic assay)) EUB0000223bCl SLC6A4
Sodium-dependent serotonin transporter, sequence (P31645 whole entry, looked up): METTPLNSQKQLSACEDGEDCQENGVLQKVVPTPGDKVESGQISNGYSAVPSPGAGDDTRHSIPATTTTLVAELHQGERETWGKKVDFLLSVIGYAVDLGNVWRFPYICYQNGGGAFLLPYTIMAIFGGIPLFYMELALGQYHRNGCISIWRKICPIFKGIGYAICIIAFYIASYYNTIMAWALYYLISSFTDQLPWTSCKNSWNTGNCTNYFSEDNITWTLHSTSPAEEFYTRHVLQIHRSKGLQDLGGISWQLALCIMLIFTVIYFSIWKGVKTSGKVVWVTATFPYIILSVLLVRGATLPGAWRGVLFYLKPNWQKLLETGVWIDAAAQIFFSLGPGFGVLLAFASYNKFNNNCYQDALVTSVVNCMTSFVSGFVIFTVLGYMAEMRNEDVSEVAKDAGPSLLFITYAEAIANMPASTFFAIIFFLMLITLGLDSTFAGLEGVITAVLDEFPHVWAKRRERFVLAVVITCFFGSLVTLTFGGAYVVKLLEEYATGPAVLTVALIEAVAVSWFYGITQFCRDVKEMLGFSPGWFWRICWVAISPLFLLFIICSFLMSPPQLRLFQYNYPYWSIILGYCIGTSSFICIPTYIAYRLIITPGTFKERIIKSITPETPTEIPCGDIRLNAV

[10] = molecular target: T2, Muscarinic acetylcholine receptor M2 (Homo sapiens) (UniProt P08172); test: Selectivity interaction (Panel of kinases, GPCRs, ion channels and transporters (enzymatic assay)) EUB0000223bCl CHRM2
T2 sequence (whole entry): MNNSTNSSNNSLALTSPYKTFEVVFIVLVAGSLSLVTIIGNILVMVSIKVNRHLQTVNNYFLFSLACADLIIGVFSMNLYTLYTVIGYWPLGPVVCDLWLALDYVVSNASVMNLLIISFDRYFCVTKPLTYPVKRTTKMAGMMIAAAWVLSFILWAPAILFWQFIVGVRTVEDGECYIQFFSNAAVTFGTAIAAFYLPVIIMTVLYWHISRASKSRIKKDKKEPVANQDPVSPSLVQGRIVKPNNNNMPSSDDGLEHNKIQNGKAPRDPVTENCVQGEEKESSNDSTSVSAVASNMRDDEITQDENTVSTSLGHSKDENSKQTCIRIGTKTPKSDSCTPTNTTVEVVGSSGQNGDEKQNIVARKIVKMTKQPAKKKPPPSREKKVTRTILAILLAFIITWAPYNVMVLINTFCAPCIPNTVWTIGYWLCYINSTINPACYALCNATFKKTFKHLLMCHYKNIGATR

[11] = molecular target: Serine/threonine-protein kinase pim-3 (Homo sapiens) (UniProt Q86V86); test: Selectivity interaction (KinomeScan (DiscoverX)) EUB0000607a PIM3; conditions: at 10 µM
[12] = molecular target: Tyrosine-protein kinase ABL1 (Homo sapiens, UniProt P00519); test: Selectivity interaction (ActivX KiNativ screen (kinase selectivity in THP-1 cell lysates)) EUB0000639a ABL1; format: subcellular; conditions: lysate, at 5 µM
[13] = molecular target: Mitogen-activated protein kinase 10 (Homo sapiens, UniProt P53779); test: Selectivity interaction (KinomeScan (DiscoverX)) EUB0000092b MAPK10; conditions: at 10 µM
Mitogen-activated protein kinase 10, sequence (P53779 whole entry): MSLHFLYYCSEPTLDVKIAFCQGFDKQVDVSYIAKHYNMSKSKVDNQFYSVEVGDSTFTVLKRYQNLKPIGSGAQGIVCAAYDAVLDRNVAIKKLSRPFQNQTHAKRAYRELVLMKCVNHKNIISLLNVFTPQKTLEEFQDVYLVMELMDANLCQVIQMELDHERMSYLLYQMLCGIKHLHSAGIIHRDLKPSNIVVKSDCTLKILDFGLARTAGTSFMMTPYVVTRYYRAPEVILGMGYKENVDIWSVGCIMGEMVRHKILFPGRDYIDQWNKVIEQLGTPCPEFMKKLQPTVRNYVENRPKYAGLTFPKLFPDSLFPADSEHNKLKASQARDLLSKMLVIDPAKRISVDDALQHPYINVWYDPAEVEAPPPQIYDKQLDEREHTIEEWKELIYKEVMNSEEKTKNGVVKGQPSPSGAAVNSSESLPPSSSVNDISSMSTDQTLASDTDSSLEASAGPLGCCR

## COc1cc(N(C)c2ccnc3ccc(C(F)(F)F)cc23)cc(OC)c1OC
[1]
  % binding: 94%
[2]
  % binding: 78%

## COCC(=O)NC/C=C/c1ccc2ncnc(Nc3ccc(Oc4ccc(C)nc4)c(C)c3)c2c1 [CP-724714]
[3]
  IC50: > 10 µM

## C=CC(=O)Nc1cc(-n2c(=O)ccc3cnc4ccc(-c5ccc(NS(C)(=O)=O)cc5)cc4c32)ccc1C
[4]; at 1 µM
  % of control: 100%
[4]; at 10 µM
  % of control: 98%

## Nc1cnc(N2CCc3cc(S(=O)(=O)Nc4c(F)cc(Cl)cc4F)cc(N4CCCC4=O)c32)nc1 [TP-020n]
[5]
  % of control: 41%
[6]
  % of control: 100%

## COc1cc(Nc2nc(C)cc(-c3cnn4nc(OC)ccc34)n2)cc(C(F)(F)F)c1
[7]
  % of control: 93%

## CN(C)CC#Cc1ccc2[nH]c3c(c2c1)-c1nc(N)ncc1CCC3
[8]
  IC50: 0.56 µM

## COc1cc(C(=O)N2CC[C@@H](O)[C@@H](N)C2)cc2nc(-c3cc4ccccc4n3CC3CC3)n(C)c12
[9]
  pXC50: 4.3 M
[10]
  pXC50: < 4.8 M

## CNC(=O)Nc1ccc(-c2nc(N3CC4CCC(C3)O4)c3cnn(C4CCC5(CC4)OCCO5)c3n2)cc1
[11]
  % of control: 100%

## CC[C@@H]1[C@H](F)C(=O)N[C@@H]1COc1nccc2cc(C(N)=O)c(OC)cc12 [ZIMLOVISERTIB]
[12]
  % of inhibition: 30.7%

## CCC(=O)N1CCN(c2ccc(-n3c(=O)ccc4cnc5ccc(-c6cnc7ccccc7c6)cc5c43)cc2C(F)(F)F)CC1
[13]
  % of control: 31%
